Measurements published in US20210094933A1, “RAPAFUCIN DERIVATIVE COMPOUNDS AND METHODS OF USE THEREOF” (The Johns Hopkins University, priority 2019, published 2021).

Experiments:
Assay type in all cases: cell-based
A549 = experiment: Cell proliferation assay (Prolif.), IC50 relative to DMSO control; settings: A549 cells; for Prolif, A549: IC50 class relative to DMSO control
Procedure: (§1) Cell Proliferation Assay (Prolif.) Guo et al. (2018) Nat. Chem. 11:254-63. Specific cell lines are indicated in each assay and cultured in complete growth media. Activity is scored according to the IC50 values relative to DMSO control. “Low” indicates an IC50 greater than 600 nM, “Medium” indicates an IC50 between 300 nM and 600 nM “High” indicates an IC50 less than 300 nM. “Rel.Uptake” refers to uptake activity characterization relative to a single concentration assay. “Low” indicates a response greater than 0.6 times the activity relative to DMSO, “Medium” indicates a response between 0.6 and 0.3 times the activity relative to DMSO, “High” indicates a response less than 0.3 times the activity relative to DMSO.

[1] = Cell proliferation assay, single concentration, response relative to DMSO; cell line indicated in each table; settings: A549 cells
Procedure: as §1

[2] = Nucleoside uptake assay, single concentration (Rel.Uptake), response relative to DMSO; cell line indicated in each table; settings: 293 T cells, nucleoside uptake at single concentration
Procedure: (§2) Nucleoside Uptake Assay (uptake). Nuceloside uptake assays were performed with using 3H-Thymidine as described in Guo et al. (2018) Nat. Chem, 11:254-63. Specific cell lines are indicated in each assay and cultured in complete growth media. Activity is scored according to the IC50 values relative to DMSO control. “Low” indicates an IC50 greater than 600 nM, “Medium” indicates an IC50 between 300 nM and 600 nM “High” indicates an IC50 less than 300 nM. “Rel.Uptake” refers to uptake activity characterization relative to a single concentration assay. “Low” indicates a response greater than 0.6 times the activity relative to DMSO, “Medium” indicates a response between 0.6 and 0.3 times the activity relative to DMSO, “High” indicates a response less than 0.3 times the activity relative to DMSO.

293T = experiment: Nucleoside uptake assay (3H-Thymidine), IC50 relative to DMSO control; settings: 293T cells
Procedure: as §2

SMILES	Prolif, A549 (A549)	Rel. Prolif., A549 [1]	Rel. Uptake, 293 T [2]	other results
CCCC[C@H]1C(=O)N[C@@H](Cc2ccc3ccccc3c2)C(=O)N(C)[C@@H](COC(C)(C)C)C(=O)NCC(=O)N(C)CCC=CC(=O)OCC(C)(C)C(=O)C(=O)N2CCCC[C@H]2C(=O)O[C@H](CCc2cc(OC)c(OC)c(OC)c2)c2cccc(c2)OCC(=O)N1C [Compound 560]	medium	medium	–	–
CCCC[C@H]1C(=O)C[C@@H](Cc2ccc3ccccc3c2)C(=O)N(C)[C@@H](COC(C)(C)C)C(=O)NCC(=O)N(C)CCC=CC(=O)OCC(C)(C)C(=O)C(=O)N2CCCC[C@H]2C(=O)O[C@H](CCc2ccc(OC)c(OC)c2OC)c2cccc(c2)OCC(=O)N1C [Compound 561]	medium	medium	–	–
CCCC[C@H]1C(=O)N[C@@H](Cc2ccc3ccccc3c2)C(=O)N(C)[C@@H](COC(C)(C)C)C(=O)NCC(=O)N(C)CCC=CC(=O)OCC(C)(C)C(=O)C(=O)N2CCCC[C@H]2C(=O)O[C@H](CCc2cc(OC)c(OC)cc2OC)c2cccc(c2)OCC(=O)N1C [Compound 562]	medium	medium	–	–
CCCC[C@H]1C(=O)N[C@@H](Cc2ccc3ccccc3c2)C(=O)N(C)[C@@H](COC(C)(C)C)C(=O)NCC(=O)N(C)CCC=CC(=O)OCC(C)(C)C(=O)C(=O)N2CCCC[C@H]2C(=O)O[C@H](CCc2cc(OC)cc(OC)c2OC)c2cccc(c2)OCC(=O)N1C [Compound 563]	low	low	–	–
CCCC[C@H]1C(=O)N[C@@H](Cc2ccc3ccccc3c2)C(=O)N(C)[C@@H](COC(C)(C)C)C(=O)NCC(=O)N(C)CCC=CC(=O)OCC(C)(C)C(=O)C(=O)N2CCCC[C@H]2C(=O)O[C@H](CCc2c(OC)ccc(OC)c2OC)c2cccc(c2)OCC(=O)N1C [Compound 564]	low	low	–	–
CCCC[C@H]1C(=O)N[C@@H](Cc2ccc3ccccc3c2)C(=O)N(C)[C@@H](COC(C)(C)C)C(=O)NCC(=O)N(C)CCC=CC(=O)OCC(C)(C)C(=O)C(=O)N2CCCC[C@H]2C(=O)O[C@H](CCc2ccc(OC)c(OC)c2O)c2cccc(c2)OCC(=O)N1C [Compound 565]	medium	medium	–	–
CCCC[C@H]1C(=O)N[C@@H](Cc2ccc3ccccc3c2)C(=O)N(C)[C@@H](COC(C)(C)C)C(=O)NCC(=O)N(C)CCC=CC(=O)OCC(C)(C)C(=O)C(=O)N2CCCC[C@H]2C(=O)O[C@H](CCc2cc(O)c(OC)c(OC)c2)c2cccc(c2)OCC(=O)N1C [Compound 566]	medium	medium	–	–
CCCC[C@H]1C(=O)N[C@@H](Cc2ccc3ccccc3c2)C(=O)N(C)[C@@H](COC(C)(C)C)C(=O)NCC(=O)N(C)CCC=CC(=O)OCC(C)(C)C(=O)C(=O)N2CCCC[C@H]2C(=O)O[C@H](CCc2cc(OC)c(OC)cc2O)c2cccc(c2)OCC(=O)N1C [Compound 567]	medium	medium	–	–
CCCC[C@H]1C(=O)N[C@@H](Cc2ccc3ccccc3c2)C(=O)N(C)[C@@H](COC(C)(C)C)C(=O)NCC(=O)N(C)CCC=CC(=O)OCC(C)(C)C(=O)C(=O)N2CCCC[C@H]2C(=O)O[C@H](CCc2cc(F)c(OC)c(OC)c2)c2cccc(c2)OCC(=O)N1C [Compound 568]	medium	medium	–	–
CCCC[C@H]1C(=O)N[C@@H](Cc2ccc3ccccc3c2)C(=O)N(C)[C@@H](COC(C)(C)C)C(=O)NCC(=O)N(C)CCC=CC(=O)OCC(C)(C)C(=O)C(=O)N2CCCC[C@H]2C(=O)O[C@H](CCc2cc(OC)c(OC)cc2F)c2cccc(c2)OCC(=O)N1C [Compound 569]	medium	medium	–	–
CCCC[C@H]1C(=O)N[C@@H](Cc2ccc3ccccc3c2)C(=O)N(C)[C@@H](COC(C)(C)C)C(=O)NCC(=O)N(C)CCC=CC(=O)OCC(C)(C)C(=O)C(=O)N2CCCC[C@H]2C(=O)O[C@H](CCc2ccc(OC)c(OC)c2F)c2cccc(c2)OCC(=O)N1C [Compound 570]	medium	medium	–	–
CCCC[C@H]1C(=O)N[C@@H](Cc2ccc3ccccc3c2)C(=O)N(C)[C@@H](COC(C)(C)C)C(=O)NCC(=O)N(C)CCC=CC(=O)OCC(C)(C)C(=O)C(=O)N2CCN(C(=O)OCC3c4ccccc4-c4ccccc43)C[C@H]2C(=O)O[C@H](CCc2ccc(OC)c(OC)c2)c2cccc(c2)OCC(=O)N1C [Compound 571]	low	low	–	–
CCCC[C@H]1C(=O)N[C@@H](Cc2ccc3ccccc3c2)C(=O)N(C)[C@@H](COC(C)(C)C)C(=O)NCC(=O)N(C)CCC=CC(=O)OCC(C)(C)C(=O)C(=O)N2CCN(C)C[C@H]2C(=O)O[C@H](CCc2ccc(OC)c(OC)c2)c2cccc(c2)OCC(=O)N1C [Compound 572]	medium	medium	–	–
CCCC[C@H]1C(=O)N[C@@H](Cc2ccc3ccccc3c2)C(=O)N(C)[C@@H](COC(C)(C)C)C(=O)NCC(=O)N(C)CCC=CC(=O)OCC(C)(C)C(=O)C(=O)N2CCCC[C@H]2C(=O)O[C@H](CCc2ccc(OC)c(OC)c2)c2cc(ccc2F)OCC(=O)N1C [Compound 573]	low	low	–	–
CCCC[C@H]1C(=O)N[C@@H](Cc2ccc3ccccc3c2)C(=O)N(C)[C@@H](COC(C)(C)C)C(=O)NCC(=O)N(C)CCC=CC(=O)OCC(C)(C)C(=O)C(=O)N2CCCC[C@H]2C(=O)O[C@H](CCc2ccc(OC)c(OC)c2)c2cc(F)cc(c2)OCC(=O)N1C [Compound 574]	low	low	–	–
CCCC[C@H]1C(=O)N[C@@H](Cc2ccc3ccccc3c2)C(=O)N(C)[C@@H](COC(C)(C)C)C(=O)NCC(=O)N(C)CCC=CC(=O)OCC(C)(C)C(=O)C(=O)N2CCCC[C@H]2C(=O)O[C@H](CCc2ccc(OC)c(OC)c2)c2ccc(F)c(c2)OCC(=O)N1C [Compound 576]	medium	medium	–	–
CCCC[C@H]1C(=O)N[C@@H](Cc2ccc3ccccc3c2)C(=O)N(C)[C@@H](COC(C)(C)C)C(=O)NCC(=O)N(C)CCC=CC(=O)OCC(C)(C)C(=O)C(=O)N2CCCC[C@H]2C(=O)O[C@H](CCc2ccc(OC)c(OC)c2)c2cccc(c2F)OCC(=O)N1C [Compound 1563]	high	–	high	–
CCCC[C@H]1C(=O)N[C@@H](Cc2ccc3ccccc3c2)C(=O)N(C)[C@@H](COC(C)(C)C)C(=O)NCC(=O)N(C)CCC=CC(=O)OCC(C)(C)C(=O)C(=O)N2CCCC[C@H]2C(=O)O[C@H](CCc2ccc(OC)c(O)c2)c2cccc(c2)OCC(=O)N1C [Compound 1564]	high	–	high	–
CCCC[C@H]1C(=O)N[C@@H](Cc2ccc3ccccc3c2)C(=O)N(C)[C@@H](COC(C)(C)C)C(=O)NCC(=O)N(C)CCC=CC(=O)OCC(C)(C)C(=O)C(=O)N2CCCC[C@H]2C(=O)O[C@H](CCc2ccc(OC)c(OC)c2)c2cncc(c2)OCC(=O)N1C [Compound 1565]	low	–	low	–
COc1ccc(CC[C@H]2OC(=O)[C@@H]3CCCCN3C(=O)C(=O)C(C)(C)COC(=O)C=CCCN(C)C(=O)[C@H](CC(C)C)N(C)C(=O)[C@H]3CCCN3C(=O)[C@H](Cc3ccc(NC(=O)Cc4cccnc4)cc3)NC(=O)[C@H](c3ccccc3)NC(=O)CCC(=O)Nc3cccc2c3)cc1OC [Compound 1589]	–	–	Low (“Low” indicates a response greater than 0.6 times the activity relative to DMSO)	IC50 (293T; Table 13): > 0.6 µM
COc1ccc(CC[C@H]2OC(=O)[C@@H]3CCCCN3C(=O)C(=O)C(C)(C)COC(=O)C=CCCN(C)C(=O)[C@H](CC(C)C)N(C)C(=O)[C@H]3CCCN3C(=O)[C@H](Cc3ccc(CC(=O)NCc4ccccc4)cc3)NC(=O)[C@H](c3ccccc3)NC(=O)CCC(=O)Nc3cccc2c3)cc1OC [Compound 1590]	–	–	High (“High” indicates a response less than 0.3 times the activity relative to DMSO)	IC50 (293T; Table 14): > 0.6 µM
CCCCCCNC(=O)Cc1ccc(C[C@@H]2NC(=O)[C@H](c3ccccc3)NC(=O)CCC(=O)Nc3cccc(c3)[C@@H](CCc3ccc(OC)c(OC)c3)OC(=O)[C@@H]3CCCCN3C(=O)C(=O)C(C)(C)COC(=O)C=CCCN(C)C(=O)[C@H](CC(C)C)N(C)C(=O)[C@H]3CCCN3C2=O)cc1 [Compound 1591]	–	–	Med	IC50 (293T; Table 14): > 0.6 µM
C=C1NCC(=O)N(C)CC/C=C\C(=O)OCC(C)(C)C(=O)C(=O)N2CCCC[C@H]2C(=O)O[C@H](CCc2ccc(OC)c(OC)c2)c2cccc(c2)NC(=O)CCC(=O)N(C)[C@@H](CC(C)C)C(=O)N[C@H](Cc2ccccc2)C(=O)N(C)[C@H]1[C@@H](C)CC [Compound 1592]	–	–	Low (“Low” indicates a response greater than 0.6 times the activity relative to DMSO)	IC50 (A549; Homo sapiens): < 0.3 µM
